Data set [1] is described as follows: Metabolic stability assay with pooled mouse liver microsomes. It is filed as in vitro ADME. The settings on record: 5 μM compound, 15 min, 0.5 mg/ml pooled mouse liver microsomes, LC/MS. The procedure: Pooled liver microsomes isolated from male CD-1 mice were purchased from BD Biosciences (San Jose, CA, USA). Metabolic stability was calculated by measuring the percentage of 5 μM of each test compound remaining after 15 min incubation with 0.5 mg/ml liver microsomes at 37 °C. Compounds were detected by LC/MS using a Xevo quadrupole time-of-flight mass spectrometer and an ACQUITY ultra-performance LC (UPLC) system (Waters Inc., Milford, MA, USA) to determine relative peak areas of each parent compound.

The subject of data set [2] is primary CD138+ myeloma cells. Briefly: Annexin V flow cytometry viability of primary bone marrow mononuclear cells, myeloma fraction. The class given is cell-based, human. The protocol:
Human multiple myeloma cell lines 8226, H929, JJN3, KMH11, KMS11, KMS18, LP1, MM.1 S, OPM2, and U266 were grown in Iscove's modified Dulbecco's medium (IMDM). Cell lines were authenticated with short tandem repeat method in September 2011. In addition, cell lines were continually monitored by morphological inspection. Primary mononuclear cells were isolated from peripheral blood or bone marrow samples from multiple myeloma patients at the Princess Margaret Cancer Centre (Toronto, ON, Canada) by Ficoll density gradient centrifugation and cultured in IMDM. All cell culture media were obtained from the Ontario Cancer Institute Tissue Culture Media Facility (Toronto, ON, Canada) and were supplemented with 10% fetal calf serum, 100 μg/ml penicillin, and 100 μg/ml streptomycin (Hyclone, Logan, UT, USA). […]
Cellular viability was primarily assessed by MTS assay according to the manufacturer's instructions (Promega, Madison, WI, USA). […] Cell viability was independently confirmed by reading the optical density at 490 nm and by exclusion of trypan blue stain (Invitrogen, Burlington, ON, Canada). Viability of primary mononuclear cells was determined by Annexin V–fluorescein isothiocyanate and propidium iodide co-staining (Biovision Research Products, Mountain View, CA, USA) using flow cytometry according to the manufacturer's instructions after 48 h of treatment with inhibitors or vehicle control.
For orientation: Flow cytometry measures light scatter and fluorescence of single cells or particles in a stream.

In data set [3] the test system is CD138- normal hematopoietic cells. Briefly: Annexin V flow cytometry viability of primary bone marrow mononuclear cells, normal fraction. It is filed as cell-based, human. The settings on record: 48 h; for sensitivity of CD138- normal hematopoietic cells: concentrations ⩽0.1 μM for FV-162, similar concentrations for ONX-0912. The protocol:
Human multiple myeloma cell lines 8226, H929, JJN3, KMH11, KMS11, KMS18, LP1, MM.1 S, OPM2, and U266 were grown in Iscove's modified Dulbecco's medium (IMDM). Cell lines were authenticated with short tandem repeat method in September 2011. In addition, cell lines were continually monitored by morphological inspection. Primary mononuclear cells were isolated from peripheral blood or bone marrow samples from multiple myeloma patients at the Princess Margaret Cancer Centre (Toronto, ON, Canada) by Ficoll density gradient centrifugation and cultured in IMDM. All cell culture media were obtained from the Ontario Cancer Institute Tissue Culture Media Facility (Toronto, ON, Canada) and were supplemented with 10% fetal calf serum, 100 μg/ml penicillin, and 100 μg/ml streptomycin (Hyclone, Logan, UT, USA). […] Cellular viability was primarily assessed by MTS assay according to the manufacturer's instructions (Promega, Madison, WI, USA). Ten thousand cells per well were seeded in triplicate in tissue culture-treated 96-well plates. Two hours after seeding, cells were treated with proteasome inhibitors for 72 h (0.01–10 μM) or DMSO vehicle control. Cell viability was independently confirmed by reading the optical density at 490 nm and by exclusion of trypan blue stain (Invitrogen, Burlington, ON, Canada). Viability of primary mononuclear cells was determined by Annexin V–fluorescein isothiocyanate and propidium iodide co-staining (Biovision Research Products, Mountain View, CA, USA) using flow cytometry according to the manufacturer's instructions after 48 h of treatment with inhibitors or vehicle control.

A short description of data set [4]: Pharmacokinetic study in Sprague-Dawley rats. It is filed as in vivo. The settings on record: rat; for bioavailability: 40 mg/kg p.o. vs 5 mg/kg i.v.
Data set [5] has as its system CT-L proteasome activity. Nature of the data set: CT-L proteasome activity in RBCs of treated mice. The class given is in vivo, mouse. The note with it: for duration of inhibition of proteasome activity in isolated RBCs: after single oral treatment of mice; for inhibition of CT-L activity in RBCs compared with ONX-0912 (30 mg/kg): up to 24 h postdose. The protocol: Cells were harvested by centrifugation at 1200 r.p.m. at room temperature. Cell pellets were washed with PBS and lysed with assay lysis buffer (50 mM HEPES (2-[4-(2-hydroxyethyl) piperazin-1-yl]ethanesulfonic acid)), pH 7.5; 150 mM NaCl; 1% Triton X-100; 2 mM ATP). Cell lysates were incubated on ice for 30 min, mixed by vortex every 5 min, and centrifuged at 12 000 × g for 10 min. Supernatants were transferred to a 96-well plate in triplicate. For each assay, 10 μg of total protein were incubated for 1 h at 37 °C with increasing concentrations (0.001–10 μM) of test compound or vehicle control diluted in assay buffer (50 mM Tris-HCl (tris(hydroxymethyl)aminomethane-HCl), pH 7.5; 150 mM NaCl). After incubation, a specific fluorogenic proteasome substrate was added to each assay reaction (40 μM in a total volume of 100 μl). N-Succinyl-Leu-Leu-Val-Tyr-7-amino-4-methylcoumarin (Suc-Leu-Leu-Val-Tyr-AMC) was used for measuring CT-L activity, t-butoxycarbonyl- Leu-Arg-Arg-7-amino-4-methylcoumarin (Boc-Leu-Arg-Arg-AMC) for T-L activity, and benzyloxycarbonyl-L-leucyl-L-leucyl-L-glutamyl-7-amino-4-methylcoumarin (Z-Leu-Leu-Glu-AMC) for C-L activity. The excitation wavelength was 360 nm and the fluorescence emission of free AMC released during the enzymatic reaction was detected at 460 nm on a SpectraMax M5 fluorescent spectrophotometric plate reader (Molecular Devices, Sunnyvale, CA, USA). AMC release rate was measured at 37 °C in a kinetic mode, recording every 5 min for 30 min.
Five-to-six-week-old male NOD/SCID mice were administered vehicle (5% DMSO, 20% Cremophor) or proteasome inhibitors either intravenously or by oral gavage (3 mice per group), and 20–50 μl of venous blood were collected from each mouse over 24 h. Blood samples were mixed with heparin (APP Pharmaceuticals; Schaumburg, IL, USA) in 0.5-ml tubes in accordance with the manufacturer's instructions. After centrifugal separation at 3000 × g for 10 min, RBCs in the bottom layer were transferred into a new tube and stored at −70 °C until use. RBCs were lysed with assay lysis buffer and incubated on ice for 30 min, mixing by vortex every 5 min, and centrifuged at 12 000 × g for 10 min. Supernatants were transferred to a 96-well plate and proteasome activity was measured as described in 'Cell lysates' section.

[6] abbreviates: male, Sprague-Dawley, plasma, iv, 5 mg/kg i.v.
Where [7] appears, read: male, Sprague-Dawley, plasma, iv, 5 mg/kg i.v., read-out: AUC (converted).
Where [8] appears, read: male, Sprague-Dawley, plasma, iv, 5 mg/kg i.v., read-out: Cmax.
Setting [9] is: male, Sprague-Dawley, plasma, po, 40 mg/kg p.o.
[10] abbreviates: male, Sprague-Dawley, plasma, po.
The mark [11] stands for this setting: male, Sprague-Dawley, plasma, 40 mg/kg oral, read-out: AUC (as printed in text) (converted).
Where [12] appears, read: male, Sprague-Dawley, plasma, 40 mg/kg oral, read-out: Cmax (as printed in text).

Like-named read-outs stand apart in the source and are kept apart here.

Consider `Cc1ncc(C(=O)N[C@@H](COC(F)F)C(=O)N[C@@H](COC(F)F)C(=O)N[C@@H](Cc2ccccc2)C(=O)[C@@]2(C)CO2)s1` [FV-162], for which the “percentage of parent compound remaining” value in data set [1] is reported as “Over 80%”. In data set [2] (concentrations ⩽0.1 μM, 48 h, n=8 patients), the “primary myeloma cells killed” value is reported as “At least 80%”. Further, in data set [3] (0.5 μM), the “CD138- cells to which compound was toxic” value was 50%. In data set [3], the “sensitivity of CD138- normal hematopoietic cells” value is reported as “largely insensitive”. The Tmax in data set [4] (setting [6]) was 5 min; in data set [4] (setting [9]), 15 min. In data set [4] (setting [6]), this compound showed a distribution volume (Vd) of 20 L/kg. Further, the half-life in data set [4] (setting [6]) turned out to be 68 min. In addition, the exposure (AUC) in data set [4] (setting [7]) was 403 ng·h/mL; in data set [4] (setting [11]), 451 ng·h/mL; in data set [4] (40 mg/kg p.o.), 27 073 min × ng/ml. Besides, the highest concentration (Cmax) in data set [4] (setting [8]) is 392 ng/mL; in data set [4] (setting [12]), 615 ng/mL. The compound further displayed a bioavailability in data set [4] (setting [10]) of 14%. For the same compound, in data set [5], the “duration of inhibition of proteasome activity in isolated RBCs” value is listed as “sustained for up to 24 h”. The “inhibition of CT-L activity in RBCs compared with ONX-0912 (30 mg/kg)” value in data set [5] (single oral dose 30 mg/kg) is “less inhibition of the CT-L activity than ONX-0912”; in data set [5] (single oral dose 100 mg/kg (half the MTD)) it was “performed similarly to almost the MTD of ONX-0912”.
`COC[C@H](NC(=O)c1cnc(C)s1)C(=O)N[C@@H](COC)C(=O)N[C@@H](Cc1ccccc1)C(=O)[C@@]1(C)CO1` [ONX-0912, reference compound]: the “percentage of parent compound remaining” value in data set [1] is on record as 56%. Also, the “induction of death in primary myeloma cells” value in data set [2] (similar concentrations as FV-162, 48 h) is on record as “less effective at inducing death in primary myeloma cells”. For the same compound, the “sensitivity of CD138- normal hematopoietic cells” value in data set [3] is reported as “no adverse effects”. Further, the Tmax in data set [4] (setting [6]) and in data set [4] (setting [9]) was 5 min throughout. In addition, the Vd in data set [4] (setting [6]) amounted to 4 L/kg. In addition, in data set [4] (setting [6]), the clearance was determined as 273 mL/min/kg. The compound further returned a half-life in data set [4] (setting [6]) of 10 min. Further, the AUC in data set [4] (setting [7]) was 301 ng·h/mL; in data set [4] (setting [11]), 377 ng·h/mL; in data set [4] (40 mg/kg p.o.), 22 627 min × ng/ml. Besides, the Cmax is 1090 ng/mL in data set [4] (setting [8]) and 1270 ng/mL in data set [4] (setting [12]). In data set [4] (setting [10]), this compound displayed a bioavailability of 16%. The “duration of inhibition of proteasome activity in isolated RBCs” value in data set [5] is on record as “sustained for up to 24 h”.

In general, Tmax refers to the time from dosing to the highest level. For orientation: Vd means a proportionality between amount in the body and measured concentration, not a real space. A low value points to confinement near the circulation. One may read the half-life as the time in which the quantity being followed falls by half. Low readings indicate fast loss, high ones slow loss. A word on the AUC: it is the area under the concentration-time curve, a measure of exposure. A word on the Cmax: it is the highest concentration seen after dosing. A word on the bioavailability: it is dose-corrected exposure relative to a reference, in per cent. A high value points to good availability. The term clearance denotes a measure of how efficiently the substance is removed, as volume per time. Read a low clearance as inefficient removal.

These data come from PMC4650734, “FV-162 is a novel, orally bioavailable, irreversible proteasome inhibitor with improved pharmacokinetics displaying preclinical efficacy with continuous daily dosing” (Cell Death & Disease, 2015).
